According to patent US8912184B1, “Therapeutic and diagnostic methods” (Alzheimer's Institute of America, Inc., priority 2010, dated 2014):

Assays:
[1] = test system: HCT116 cells; assay: 72 Hour HCT116 Cytotoxicity Assay (CellTiter-Glo); assay type: cell-based; details: Homo sapiens, HCT-116, 72 h, 72 hours; read-out: HCT116 cell cytotoxicity IC50
Description: HCT116 cells were seeded in 96 well plates (Greiner Bio-One, Monroe, N.C.) and allowed to settle overnight. Test compound dissolved in dimethyl sulfoxide (DMSO) was added and drug incubation proceeded for 72 hours. […] After 72 hour, 50 μL of CellTiter-Glo Luminescent Cell Viability Assay reagent (Promega Corporation, Madison, Wis.) was added to cells in 200 μL of cellular media. After a proscribed incubation period, luminescence was measured using a TopCount NXT plate reader (PerkinElmer, Waltham, Mass.).

[2] = test system: HCT-116 cell line; assay: cells; details: Homo sapiens, HCT-116, 72 h, read-out: EC50 of NA rescue from Exemplary Compound A-induced cytotoxicity
Description: (§1) In the second method, cells were exposed to varying concentrations of NA in the presence of a fixed, toxic concentration of Nampt1 inhibitor. This allows determination of the relative effectiveness of NA at rescuing Nampt1 inhibitor-mediated cytotoxicity across cell lines. For this method, the following modifications were made to the standard cytotoxicity assay. Twenty four hours after cell were plated, a serial dilution of nicotinic acid, dissolved in water, was generated and added to the cells. […] Cell viability was then assessed at 72 h. Cell viability (after normalization to controls lacking Nampt1 inhibitor) was plotted against NA concentration.
(§2) In cases where the high asymptote of the NA rescue curve corresponded to 75% or less recovery in cell viability, the cell line was deemed to be partially rescued.
(§3) In the first set of experiments, two different cancer cell lines were employed.

[3] = test system: MIA PaCa2 cell line; assay: cells; details: Homo sapiens, MIA PaCa-2, 72 h, read-out: EC50 of NA rescue from Exemplary Compound A-induced cytotoxicity
Description: as §1, §2, §3

[4] = assay type: in vivo; details: mice, oral NA 3 g/kg 1 h prior or up to 8 h following 300 mg/kg Exemplary Compound A
[5] = test system: HCT116 cells; assay: Nicotinic Acid Rescue Cytotoxicity Assay, first method: cytotoxicity to HCT116 cells in presence and absence of 10 μM nicotinic acid; assay type: cell-based; details: Homo sapiens, HCT-116, 72 h
Description: Additionally, Nicotinic Acid (NA) rescue of cytotoxicity of Nampt inhibitors was assessed by two distinct methods. In the first method, Nampt1 inhibitor cytotoxicity was evaluated in the presence and absence of exogenous nicotinic acid (NA) at a fixed concentration. […] Twenty four hours after cells were plated, the media was removed and replaced with media containing 10 μM nicotinic acid. Compounds were then immediately added. Cell viability was then assessed at 72 h.
Using the first of the two assays described above, the 90 compounds shown in Table 5, below, were tested for cytotoxicity towards Naprt1-proficient HCT116 cells, and for the ability of NA to block the observed cytotoxicity (or “rescue” the cells from the cytotoxic activity of the tested compound). The compounds listed are referred to by a unique rescue analysis example number (i.e., R1, R2 . . . R90) that is used as a reference number in Table 4, in which the results of the cytotoxicity and rescue assays are presented.

[6] = absence of nicotinic acid, read-out: HCT116 72 h cytotoxicity
[7] = presence of 10 μM nicotinic acid, read-out: HCT116 72 h cytotoxicity with 10 μM Nicotinic Acid

| SMILES | IC50 [5, 6] [nM] | IC50 [5, 7] [nM] | also measured |
| --- | --- | --- | --- |
| O=C(NCc1cccnc1)Nc1ccc(COc2cc(C(F)(F)F)ccc2Cl)cc1 [Example 164, 1-(4-{[2-Chloro-5-(trifluorometh-yl)phenoxy]meth-yl}phenyl)-3-(pyridin-3-ylmethyl)urea] |  |  | IC50 [1]: ~74 nM |
| O=C(NCc1cccnc1)Nc1ccc(C[S+]([O-])c2ccccc2-c2ccccc2)cc1 (stereo not drawn) [Example 210, 1-{4-[(biphenyl-2-ylsulfinyl)meth-yl]phenyl}-3-(pyridin-3-ylmethyl)urea] |  |  | IC50 [1]: ~39 nM |
| O=C(NCCCNS(=O)(=O)c1ccccc1-c1ccccc1)NCc1cccnc1 [Example 152, N-(3-{[(pyridin-3-ylmethyl)carbamoyl]a-mino}propyl)biphenyl-2-sulfonamide] |  |  | IC50 [1]: ~55 nM |
| N#C/N=C(/NCc1ccc(COc2ccccc2-c2ccccc2)cc1)Nc1ccncc1 [Example 605, 1-{4-[(Biphenyl-2-yloxy)methyl]benzyl}-2-cyano-3-pyridin-4-ylguanidine] |  |  | IC50 [1]: ~1.1 nM |
| O=C(O)c1cccnc1 [NA, nicotinic acid] |  |  | EC50 [2]: 400 nM; EC50 [3]: > 10000 nM; effect of NA on Exemplary Compound A lethality [4]: completely blocked |
| O=C(NCc1cccnc1)Nc1ccc(NS(=O)(=O)c2cc(C(F)(F)F)ccc2-c2ccccc2)cc1 [Example R60, N-(4-{[(pyridin-3-ylmethyl)carbamoyl]amino}phenyl)-4-(trifluoromethyl)biphenyl-2-sulfonamide] | 3.7 | > 5000 |  |
| O=C(NCCCCCCOc1ccc(Cl)cc1)Nc1ccc(F)c(F)c1 [Example R41, 1-[6-(4-Chlorophenoxy)hexyl]-3-(3,4-difluorophenyl)urea] | 7080 | 6000 |  |
| CCOC(=O)c1c[nH]c2ccc(C(=O)Nc3ccc(C(=O)NCc4cccnc4)cc3)cc2c1=O [Example R53, ethyl 4-oxo-6-({4-[(pyridin-3-ylmethyl)carbamoyl]phenyl}carbamoyl)-1,4-dihydroquinoline-3-carboxylate] | 6.8 | > 10000 |  |
| O=C(NCc1cccnc1)Nc1ccc(NS(=O)(=O)c2cc(C(F)(F)F)ccc2Br)cc1 [Example R57, 2-Bromo-N-(4-{[(pyridin-3-ylmethyl)carbamoyl]amino}phenyl)-5-(trifluoromethyl)benzenesulfonamide] | 0.5 | > 10000 |  |
| O=C(NCc1cccnc1)Nc1ccc(NS(=O)(=O)c2c(F)cc(F)cc2Br)cc1 [Example R61, 2-bromo-4,6-difluoro-N-(4-{[(pyridin-3-ylmethyl)carbamoyl]amino}phenyl)benzene-sulfonamide] | 1.8 | > 1000 |  |
| O=C(NCc1cccnc1)Nc1ccc(NC(=O)c2ccccc2-c2ccccc2)cc1 [Example R55, N-(4-{[(pyridin-3-ylmethyl)carbamoyl]amino}phenyl)biphenyl-2-carboxamide] | 48.8 | > 1000 |  |
| CC(C)c1ccccc1NCC(=O)Nc1ccc(C(=O)NCc2cccnc2)cc1 [Example R22] | 302 | > 50000 |  |
| N#C/N=C(/NCCCCCCOc1ccc(Cl)cc1)Nc1ccncc1 [Example R5, 1-[6-(4-Chlorophenoxy)hexyl]-2-cyano-3-pyridin-4-ylguanidine] | 1.6 | > 10000 |  |
| O=C(/C=C/c1cccnc1)NCCCCC1CCN(C(=O)c2ccccc2)CC1 [Example R3, (2E)-N-[4-(1-Benzoylpiperidin-4-yl)butyl]-3-(pyridin-3-yl)prop-2-enamide] | 1.4 | > 10000 |  |
| O=C(NCc1cccnc1)Nc1ccc(NS(=O)(=O)c2ccccc2-c2ccn[nH]2)cc1 [Example R88, 2-(1H-Pyrazol-5-yl)-N-(4-{[(pyridin-3-ylmethyl)carbamoyl]amino}phenyl)benzene-sulfonamide] | 2.5 | > 5000 |  |
| O=C(NCc1cccnc1)Nc1ccc(C(=O)Nc2ccccc2-c2ccccc2)cc1 [Example R58, N-(biphenyl-2-yl)-4-{[(pyridin-3-ylmethyl)carbamoyl]amino}benzamide] | 1.6 | > 10000 |  |
| CC(C)CCN(Cc1ccccc1Cl)c1ccc(C(=O)NCc2cccnc2)cc1 [Example R42, 4-[(2-Chlorobenzyl)(3-methylbutyl)amino]-N-(pyridin-3-ylmethyl)benzamide] | 387 | > 10000 |  |
| CN(C)c1cccc2c(S(=O)(=O)Nc3ccc(NC(=O)NCc4cccnc4)cc3)cccc12 [Example R45, 5-(Dimethylamino)-N-(4-{[(pyridin-3-ylmethyl)carbamoyl]amino}phenyl) naphthalene-1-sulfonamide] | 4.8 | > 10000 |  |
| O=C(CNCc1ccccc1Br)Nc1ccc(C(=O)NCc2cccnc2)cc1 [Example R18, 4-{[N-(2-Bromobenzyl)glycyl]amino}-N-(pyridin-3-ylmethyl)benzamide] | 6810 | > 50000 |  |
| O=C(NCc1cccnc1)Nc1ccc(S(=O)(=O)Nc2ccccc2Cl)cc1 [Example R54, N-(2-chlorophenyl)-4-{[(pyridin-3-ylmethyl)carbamoyl]amino} benzenesulfonamide] | 71.5 | > 10000 |  |
| S=C(NCCCCCCOc1ccc(Cl)cc1)Nc1cccnc1 [Example R39, 1-[6-(4-Chlorophenoxy)hexyl]-3-pyridin-3-ylthiourea] | 1620 | > 10000 |  |
| O=C(NCc1cccnc1)Nc1ccc(OCc2ccccc2-c2ccccc2)cc1 [Example R77, 1-[4-(biphenyl-2-ylmethoxy)phenyl]-3-(pyridin-3-ylmethyl)urea] | 1.7 | > 5000 |  |
| CC(=O)Nc1cccc(-c2ccccc2CNc2ccc(C(=O)NCc3cccnc3)cc2)c1 [Example R26, 4-({[3′-(Acetylamino)biphenyl-2-yl]methyl}amino)-N-(pyridin-3-ylmethyl)benzamide] | 26.9 | 25000 |  |
| Cc1ccccc1NCC(=O)Nc1ccc(C(=O)NCc2cccnc2)cc1 [Example R20, 4-{[N-(2-Methylphenyl)glycyl]amino}-N-(pyridin-3-ylmethyl)benzamide] | 106 | > 50000 |  |
